Columns and labels:
[1] = Pharmacokinetics of GDC-9545 and palbociclib in patients; assay type: in vivo, human
Text: Pharmacokinetics. […] Palbociclib PK was not altered when given with GDC-9545 and was consistent with reported values.

[2] = molecular target: T1, ER (Homo sapiens, UniProt P03372); test: Pharmacodynamics: ER protein level in paired pre- and on-treatment biopsies; assay type: in vivo; conditions: 10/12; pre- and on-treatment biopsies (n=12); cohort not stated
T1 construct: from tissue; host or cells: patients' tumour biopsies (pre- and on-treatment)
T1 sequence (P03372 1-595): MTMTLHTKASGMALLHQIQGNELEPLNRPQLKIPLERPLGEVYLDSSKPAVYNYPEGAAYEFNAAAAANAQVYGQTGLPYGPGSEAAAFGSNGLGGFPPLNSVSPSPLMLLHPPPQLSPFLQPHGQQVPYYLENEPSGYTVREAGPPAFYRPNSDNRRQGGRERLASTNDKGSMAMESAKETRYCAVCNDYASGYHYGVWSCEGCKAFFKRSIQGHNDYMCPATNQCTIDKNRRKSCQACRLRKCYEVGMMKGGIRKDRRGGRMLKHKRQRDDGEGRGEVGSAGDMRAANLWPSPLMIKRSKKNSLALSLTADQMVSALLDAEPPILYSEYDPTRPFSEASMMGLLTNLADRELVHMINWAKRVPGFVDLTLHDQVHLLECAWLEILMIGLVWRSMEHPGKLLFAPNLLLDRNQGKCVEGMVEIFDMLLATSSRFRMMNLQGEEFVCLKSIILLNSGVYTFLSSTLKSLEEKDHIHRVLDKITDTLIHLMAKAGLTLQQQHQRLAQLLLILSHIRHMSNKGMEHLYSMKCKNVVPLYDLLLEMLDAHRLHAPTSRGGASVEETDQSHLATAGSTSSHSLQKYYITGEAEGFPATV

[3] = system: ER+ (HER2−) metastatic breast cancer; test: Clinical activity (clinical benefit, response, PFS; RECIST v1.1); assay type: in vivo, human
Text: “Objective response rate” or “ORR” refers the percentage of patients with a confirmed complete response or partial response on two consecutive occasions ≥4 weeks apart, as determined by the investigator according to RECIST v1.1
“Progression free survival” or “PFS” refers to the time from enrollment to the date of the first recorded occurrence of disease progression, as determined by the investigator using RECIST v1.1 or death from any cause, whichever occurs first.
“Clinical benefit rate” or “CBR” refers to the percentage of patients with stable disease for at least 24 weeks or with confirmed complete or partial response, as determined by the investigator according to RECIST v1.1.
Clinical Activity. In Cohort A 22/40 patients (55%) derived clinical benefit defined as patients with CR, PR or first occurrence of progressive disease observed on or after 24 weeks.

[4] = system: ER pathway signature; test: Pharmacodynamics: ER pathway signature score in paired biopsies; assay type: in vivo, human; conditions: 8/12; pre- and on-treatment biopsies (n=12); cohort not stated
Text: An “ER pathway activity score” as used herein, refers to a numerical value that reflects mathematical difference between the E2-induced score and the E2-repressed score.
Breast cancer is a heterogeneous disease with many distinct subtypes as defined by molecular signatures and a diverse array of mutational profiles. Patients described herein can be tested for ER+ HER2− laBC or mBC using diagnostic methods, or kits to inform treating or predict of responsiveness of a pateint to the combination therapies described herein. In one embodiment, a patient can be tested by determining an ER pathway activity score such as those described in US Patent Application Publication 20200082944. In some embodiments, a patient sample is taken and tested to determine an ER pathway activity score. The score can be calculated using a 41-gene signature by subtracting an E2-repressed score (as determined from the average z-scored expression of genes comprising BAMBI, BCAS1, CCNG2, DDIT4, EGLN3, FAM171B, GRM4, IL1R1, LIPH, NBEA, PNPLA7, PSCA, SEMA3E, SSPO, STON1, TGFB3, TP531NP1, and TP531NP2) from an E2-induced score (as determined from the average z-scored expression of genes set forth in AGR3, AMZ1, AREG, C5AR2, CELSR2, CT62, FKBP4, FMN1, GREB1, IGFBP4, NOSIAP, NXPH3, OLFM1, PGR, PPMIJ, […], RBM24, RERG, RET, SGK3, SLC9A3R1, TFF1, and ZNF703).

[5] = system: patients with ER+ (HER2−) metastatic breast cancer; test: Reason for discontinuation of study treatment; assay type: in vivo; conditions: Cohort A n = 40, Cohort B n = 48
[6] = system: ESR1 mutant allele (ctDNA); test: ctDNA ESR1 mutant allele frequency, change from baseline; assay type: in vivo, human; conditions: all patients in both cohorts (n=26)
[7] = system: PR; test: Pharmacodynamics: PR protein level in paired pre- and on-treatment biopsies; assay type: in vivo, human; conditions: 7/8, cohort not stated
[8] = system: patients with ER+ (HER2−) metastatic breast cancer; conditions: human, in vivo
Text: A graded adverse event refers to the severity grading scale as established for by NCI CTCAE. In one embodiment, the adverse event is graded in accordance with the table below.
No prior treatment with CDK4/6i was allowed in patients receiving palbociclib.

[9] = Cohort A n = 40, Cohort B n = 48
[10] = of 31 (Cohort A) and 45 (Cohort B) patients with measurable disease

With C[C@@H]1Cc2c([nH]c3ccccc23)[C@@H](c2c(F)cc(NC3CN(CCCF)C3)cc2F)N1CC(F)(F)CO [GDC-9545, 3-((1R,3R)-1-(2,6-difluoro-4-((1-(3-fluoropropyl)azetidin-3-yl)amino)phenyl)-3-methyl-1,3,4,9-tetrahydro-2H-pyrido[3,4-b]indol-2-yl)-2,2-difluoropropan-1-ol] the “Exposure of GDC-9545 in combination with palbociclib versus single agent GDC-9545” value [1] was “generally comparable”, the “Reduced ER protein levels, share of evaluable paired biopsies” value [2] was 83% and the “Clinical benefit in patients with prior fulvestrant treatment” value ([3]; Cohort A 2/7, Cohort B 2/3) was 29%. The “Clinical benefit in patients with detectable ESR1 mutations at enrollment” value ([3]; Cohort A 8/13, Cohort B 11/11) was 62%, the “Patients who derived clinical benefit (CR, PR or first progressive disease on or after 24 weeks)” value ([3]; Cohort A 22/40, Cohort B 35/48) was 55% and the “Median PFS” value [3, 9] was 7.8 months. For the same molecule, the “Patients with an event of disease progression or death for PFS calculations” value [3, 9] was 55%, the CBR ([3]; Table 3) was 55% and the ORR ([3]; Table 3) was 13%. The Clinical benefit ([3]; number of patients as printed) was 40, the “Patients with confirmed response” value [3, 10] was 4 and the “Patients with unconfirmed response” value [3, 10] was 4. For the same molecule, the Partial response ([3]; patients with measurable disease at baseline, Cohort A 4/31, Cohort B 14/45) was 13%, the “Reduced ER pathway signature scores, share of evaluable paired biopsies” value [4] was 67% and the “Reason for discontinuation: Death” value [5] was 1 (3%) patients (%). For the same molecule, the “Reason for discontinuation: Disease progression” value [5] was 22 (55%) patients (%), the “ctDNA ESR1 mutant allele frequency” value [6] was “Decreases from baseline” and the “Reduced PR protein levels, share of evaluable paired biopsies” value [7] was 88%. For the same molecule, the “Bradycardia AEs reported, patients” value [8] was 8%, the “Grade 3 AEs related to GDC-9545 (others Grade 1-2)” value [8] was “three Grade 3 events of fatigue, transaminase increased, and diarrhea” and the “Heart rate (HR) changes upon completion of treatment” value [8] was “returned to baseline”. The “Patients who discontinued study treatment due to AEs” value [8] was “No patients”, the “Patients with an AE related to GDC-9545” value [8] was 58% and the “Severity of bradycardia AEs” value [8] was “all were Grade 1 and asymptomatic”. For the same molecule, the “Treatment-emergent AEs (TEAE) reported, patients” value [8] was 78%.
For CC(=O)c1c(C)c2cnc(Nc3ccc(N4CCNCC4)cn3)nc2n(C2CCCC2)c1=O [Palbociclib, 6-acetyl-8-cyclopentyl-5-methyl-2-{[5-(piperazin-1-yl)pyridin-2-yl]amino}pyrido[2,3-d]pyrimidin-7(8H)-one, reference compound], the “Palbociclib PK when given with GDC-9545” value ([1]; consistent with reported values) was “not altered”.

Source: patent US11918561B2, “Treatment of breast cancer using combination therapies comprising GDC-9545 and a CDK4/6 inhibitor” (Genentech, Inc., priority 2020, dated 2024)
